Test results: patent US20110214190A1, “TRANSGENIC REPORTER MOUSE AND METHOD FOR USE” (priority 2008, published 2011)
Like-named read-outs stand apart in the source and are kept apart here. Peptide text beside a SMILES is read from it. * marks the point of attachment. Cbz = O=C(OCc1ccccc1)*

Assays:
[1] = cited from earlier work
Nf-κβ signaling = test: Nf-κβ inhibitors on LipidA induced Luc/mC expression in vivo; parameters: species or system mouse
From the text: A signaling pathway known to activate NGAL expression was taken advantage of in order to examine whether Luc2/mC expression was reversible after cessation of the stimulus. […] Subsequently, Nf-κβ mediates NGAL transcription. […] In addition, the testis is one of the few sites that tonically expresses NGAL and Luc2/mC, and even this site was suppressed by these inhibitors.

PARP = settings: after onset of acute hindlimb ischemia (post hoc), during I/R; cited from earlier work
[2] = system: cells from reporter kidneys; test: NGAL-luciferase activity in primary cells from reporter kidneys; type: cell-based, mouse; settings: plates seeded with cells from reporter kidneys
From the text: NGAL di-fusion primary cells from whole organs. Whole kidney cells were obtained from the NGAL di-fusion reporter mice (8-12 weeks of age) using collagenase (Sigma) digestion, differential sieving and seeded at a density of 1×10^5 per well. Cells were washed with a buffered salt solution and grown overnight before exposure to TLR agonists, ROS inducing species or toxin. Plates were imaged in the Xenogen IVIS optical imaging system (Xenogen Corp., Almeda, Calif.) for NGAL-luciferase activity.
Bioluminescence and Fluorescence Imaging of mCherry and luciferase Expression in Living Mice and primary cell lines. For in vivo bioluminescence imaging, mice were anesthetized, and injected with 150 mg/kg of luciferin in PBS (pH 7) via IP injection that is allowed to distribute in awake animals for about 10 minutes. […] Regions of interest (ROIs) were drawn on the dorsal side of the animal and quantified by using Living Image Software version 3.1. Counts detected in the ROIs by the CCD camera digitizer can by converted to physical units of radiance in photons/s/cm2/steradian. […] NGAL reporter primary cells were first imaged for mCherry activity with block excitation and block emission and NGAL-luciferase activity was quantified by detection of light emitted after cell lysis and incubation with luciferin. […]

cyst growth = settings: polycystic kidney disease model; cited from earlier work
NGAL expression = test: Cell stressors, NGAL expression; type: cell-based; settings: H202 1 mmol/L for 4 hours
[3] = type: in vivo, mouse
From the text: Identification of Hidden Damage. Serum creatinine was little changed in our model of unilateral ischemia, because the untouched contralateral kidney limited the opportunity for azotemia.

NGAL message [4] = test: Ngal in situ hybridization of kidney after lipidA challenge; type: in vivo, mouse; settings: after LipidA treatment
Description: In situ hybridization. NGAL RNA was detected using digoxigenin-labeled antisense riboprobes generated from cDNAs encoding Ngal (exon 1-7, 566 bp) by linearization with XhoI followed by T7 RNA polymerase. Kidneys were collected in ice-cold PBS and fixed overnight at 4° C. in 4% paraformaldehyde (PFA) in 0.1 M phosphate buffer saline (PBS), briefly quenched in 50 mM NH4Cl, cryoprotected overnight in 30% sucrose PBS and embedded and sectioned ([…]) in O.C.T. compound. The sections were post-fixed in 4% PFA for 10 min, treated with proteinase K (1 mg/ml for 3 min), acetylated and prehybridized for 2 hrs, and then hybridized at 68-72° C. overnight. The prehybridization and hybridization solution was 50% formamide, 5′SSC, 5′ Denhardts, […] baker's yeast RNA (Sigma), and […] herring sperm DNA (Sigma). Sections were washed at 72° C. in 5′SSC for 5-10 minutes, then at 72° C. in 0.2′SSC for 1 hour and then stained overnight (4° C.) with an anti-digoxigenin antibody coupled with alkaline phosphatase (Boehringer-Mannheim), at a 1:5000 dilution in 0.1 M Tris-HCl, pH 7.5, 0.15 M NaCl, 1% heat inactivated goat serum. Alkaline phosphatase activity was detected using BCIP, NBT (Boehringer-Mannheim) with 0.25 mg/ml levamisole in a humidified chamber for 1-3 days in the dark. Sections were dehydrated and mounted in Permount (Fisher Scientific). […]

NGAL reporter ES cells = test: NGAL-luciferase responsiveness in NGAL reporter ES cells; type: cell-based, mouse; settings: NGAL reporter ES cells exposed to stimulant; control conditions no detectable expression
From the text: […]. […] […]. Verification of the germline-transmitted F1 mice. The targeted allele was PCR-amplified by using primers F2, and R3 which was from the 1 Kb DNA fragment replaced by a DTA-AMP^r cassette in the targeting construct.
NGAL targeting in mouse ES cells. The NGAL-targeting construct was electroporated into the KV1 ES cells, and the neomycin-resistant ES clones were PCR-screened for the targeted NGAL allele for homologous recombination. Additionally, ES cells containing the NGAL di-fusion gene were challenged with either cisplatin or LPS to induce NGAL reporter activity (FIG. 1B, Panel D). ES cells with a Luc2-mCherry-LNL knockin allele were microinjected into wild-type C57B6 blastocysts to generate chimera which were subsequently mated with albino C57B6 female mice for germline transmission. The F1 mice were PCR-genotyped by using primers F1, R1 and R2, and the germline transmitted mice contained both targeted and wild type alleles (FIG. 1B, Panel C).
Luciferase (pGL4.10[luc2], Promega E6651) and mCherry (pmCherry [mC], Clontech 632522) genes separated by a 42 by spacer were ligated by overlap PCR and validated in 293T cells using a CMV promoter to drive robust Luc2 and mC bioluminescence and fluorescence (FIG. 1A, Panel A). […]

NGAL message [5] = test: NGAL message (real-time PCR) in kidney after LipidA; type: in vivo, mouse; settings: 30 mg/kg LipidA
Description: (§1) Real-Time PCR were prepared according to Bio-Rad SYBR GREEN, iCyclerMyiQ protocols. Target genes, including Ngal, β-actin, utilized respectively: Ngal 116 forward primer 5′-[…]-3′ and NGALa593 reverse 5′-[…]-3′; β-actin415 forward primer 5′-[…]-3′ and β-actin 696 reverse primer 5′-[…]-3′. The ΔΔCT method was used to calculate fold amplification of transcripts.
as §1, with “Real Time” for “Real-Time”, “PCR analysis. Samples” for “PCR”, “processed” for “prepared”, “genes” for “genes, including Ngal, β-actin,”

NGAL-Luc2/mC reporter = test: In vivo bioluminescence imaging of NGAL di-fusion reporter mouse after LipidA; settings: for NGAL activity assayed by luciferase (Luc2/mC response): kidney, liver, spleen, skin and lung, 24 hours after lipidA i.p. at 5, 15 and 30 mg/kg
Description: Bioluminescence and Fluorescence Imaging of mCherry and luciferase Expression in Living Mice and primary cell lines. For in vivo bioluminescence imaging, mice were anesthetized, and injected with 150 mg/kg of luciferin in PBS (pH 7) via IP injection that is allowed to distribute in awake animals for about 10 minutes. […]. Mice are then placed in a light tight chamber equipped with a halogen light source, and whole body image was acquired for 30 seconds using the Xenogen IVIS optical imaging system with a block excitation filter and a block emission filter for NGAL-mCherry visualization and an open emission filter for NGAL-luciferase activity. Regions of interest (ROIs) were drawn on the dorsal side of the animal and quantified by using Living Image Software version 3.1. Counts detected in the ROIs by the CCD camera digitizer can by converted to physical units of radiance in photons/s/cm2/steradian. Visualization of NGAL di-fusion reporter activity in primary cells were also assayed in the bioimager. NGAL reporter primary cells were first imaged for mCherry activity with block excitation and block emission and NGAL-luciferase activity was quantified by detection of light emitted after cell lysis and incubation with luciferin.

## NCC(=O)O.[CH+]=O.[CH+]=O.[CH+]=O.[Cl][Ru] [CORM-3, tricarbonylchloro(glycinato)ruthenium(II)]
[1]; given 1 hour before onset of ischemia, 24 hours after reperfusion
  Levels of plasma creatinine: significantly decreased

## CC(C)C[C@@H](C=O)NC(=O)[C@H](CC(C)C)NC(=O)[C@H](CC(C)C)NC(=O)OCc1ccccc1 [MG-132] (Cbz-Leu-Leu-Leu-aldehyde)
Nf-κβ signaling
  Tonic NGAL and Luc2/mC expression in testis: suppressed
Nf-κβ signaling; NGAL reporter mouse
  LipidA induced Luc/mC expression: reduced LipidA induced Luc/mC expression

## CN(C)CC(=O)Nc1ccc2[nH]c(=O)c3ccccc3c2c1 [PJ34]
PARP
  Local production of inflammatory mediators: modulates the local production of inflammatory mediators

## N.N.[Cl][Pt][Cl] [cisplatin]
[2]
  Response of primary reporter kidney cells (luciferase): direct effect on renal epithelia

## CC(=O)O[C@H]1C(=O)[C@@]2(C)[C@H]([C@H](OC(=O)c3ccccc3)[C@]3(O)C[C@H](OC(=O)[C@H](O)[C@@H](NC(=O)c4ccccc4)c4ccccc4)C(C)=C1C3(C)C)[C@]1(OC(C)=O)CO[C@@H]1C[C@@H]2O [taxol]
Cyst growth
  Cyst growth: limit cyst growth

## [C-]#[O+].[C-]#[O+].[C-]#[O+].[C-]#[O+].[C-]#[O+].[C-]#[O+].[Cl][Ru][Cl].[Cl][Ru][Cl] [tricarbonyldichlororuthenium(II) dimer]
[1]; in vivo
  Levels of plasma creatinine: significantly decreased

## Cobalt
NGAL expression
  NGAL expression: trigger NGAL expression

## LipidA
[3]; 30 mg/kg dose of LipidA
  Azotemia: induced Luc/mC and azotemia
[3]; low doses of LipidA (Luc/mC still induced)
  Azotemia / serum creatinine: without azotemia or a change in serum creatinine
NGAL message [4]
  Localisation of Ngal expression in kidney: predominate expression in inner medullary tubules
NGAL message [4]; listed as lipidA
  Localisation of Ngal expression in kidney: expressed in tubules
NGAL reporter ES cells
  NGAL-luciferase activity: induced NGAL-luciferase activity
NGAL message [5]
  NGAL message induced in the kidney: 30 fold
NGAL-Luc2/mC reporter
  NGAL activity assayed by luciferase (Luc2/mC response): graded Luc-mC response
NGAL-Luc2/mC reporter; listed as lipidA
  NGAL activity assayed by luciferase (Luc2/mC response): upregulated and dose dependent
NGAL-Luc2/mC reporter; same mice at a later time after volume depletion
  Luc/mC induction, positive control: effectively induced Luc/mC
[2]
  Response of primary reporter kidney cells (luciferase): responded in dose-dependent manner
